Holding throughout (assay): growth of human tumour cells (NCI), 48 h
For experiment [1], the system named is A549 NSCLC.
Experiment [2] deals with SF-295 CNS.
For experiment [3], the system named is SF-539 CNS.
In experiment [4] the test system is SK-MEL-2 melanoma.
The test system of experiment [5] is SR leukemia.
In experiment [6] the test system is SW-620 colon.
The subject of experiment [7] is UACC-257 melanoma.
The test system of experiment [8] is UO-31 renal.
In experiment [9] the test system is NCI-H522 lung.
Experiment [10] concerns SN12C renal.

Structures are written as SMILES. Several values for one entry are separate records, joined by “and”; a condition that tells them apart may be missing. Equal values may be shown once.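 Cells were grown in 96-well plates and exposed to each compound for 48 hours at five concentrations; endpoints were interpolated linearly between bracketing concentrations, or set to the highest concentration if not reached. At the GI50, growth is halved. At the TGI there is no net growth.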

The values that follow come from PubChem BioAssay (NCI).

Turning to `C/C=C/c1cc(=O)c([C@@H]2OC(=O)c3cc(OC)cc(OC)c32)co1`, the TGI in experiment [1], in experiment [2], in experiment [3], in experiment [4], in [5] and in [6] was greater than 100 µM in each case. Besides, the TGI in [7] and in experiment [8] was greater than 100 µM throughout.
`COc1cc([C@@H]2c3cc4c(cc3[C@@H](c3c(O)cc(O)c5c3O[C@H](c3ccc(O)c(O)c3)[C@@H](O)C5)[C@H]3COC(=O)[C@H]23)OCO4)cc(OC)c1OC`: the TGI in experiment [1] is greater than 100 µM; in experiment [9], greater than 100 µM; in experiment [2], 3.45 µM; in experiment [3], greater than 100 µM; in experiment [4], 3.75 µM; in experiment [10], greater than 100 µM. The TGI in [6] was greater than 100 µM; in [7], 3.81 µM.
`CCNC(=S)N=Nc1c(O)[nH]c2ccc([N+](=O)[O-])cc12`: the TGI in experiment [1], in experiment [2], in experiment [3], in experiment [4], in experiment [10] and in [5] was greater than 100 µM throughout. For the same compound, the TGI in experiment [6], in [7] and in experiment [8] was greater than 100 µM each time.
With `O=C1CCCCC/C1=C\c1ccc([N+](=O)[O-])cc1`, the TGI in experiment [1] is greater than 100 µM; in experiment [2] it was greater than 100 µM; in experiment [3], 62.5 µM; in experiment [4], greater than 100 µM; in [10], 59.6 µM; in [5] it was 92.9 µM. Besides, the TGI in experiment [6] is greater than 100 µM; in experiment [7], 54.9 µM; in experiment [8], 79.7 µM.
Turning to `COc1ccc(N2C(=O)CC(=O)N(C(=O)COc3ccc(OCC(=O)N4C(=O)CC(=O)N(c5ccc(OC)cc5)C4=S)cc3)C2=S)cc1`, the TGI in experiment [1], in experiment [9], in experiment [2], in experiment [4], in experiment [10] and in [6] was greater than 100 µM in each case. The TGI in experiment [7] and in experiment [8] was greater than 100 µM each time.
For `[Cl][Sn]([c]1ccccc1)([c]1ccccc1)[c]1ccccc1`, the TGI is 0.41 µM and 0.176 µM and 0.0469 µM in experiment [1]; 0.642 µM and 0.244 µM and 0.0847 µM in [3]; 0.524 µM and 0.196 µM and 0.0578 µM in experiment [4]; 0.114 µM and 0.0651 µM in experiment [10]; 0.86 µM and 0.552 µM and 0.112 µM in [5]; 0.104 µM and 0.0229 µM in experiment [6]. The TGI in experiment [8] is 0.366 µM and 0.209 µM and 0.127 µM. Moreover, the GI50 in experiment [3] is 0.25 µM and 0.109 µM and 0.0284 µM; in experiment [10] it was 0.031 µM and 0.0142 µM; in [6], 0.0303 µM and < 0.01 µM; in experiment [8], 0.183 µM and 0.0863 µM and 0.0343 µM.
As for `Cc1ccc(S(=O)(=O)n2c3ccc(Br)cc3c3nc4ccccc4nc32)cc1`, the TGI in experiment [1], in experiment [9], in experiment [2], in [4], in [10] and in [6] was greater than 100 µM in each case. Moreover, the TGI in experiment [7] and in experiment [8] was greater than 100 µM each time.
Regarding `CO/N=C1\CC(NC(=O)CNC(=O)OC(C)(C)C)c2ccsc21` (centres undefined), the TGI in experiment [1], in [2], in experiment [3], in experiment [4], in [10] and in experiment [5] was greater than 100 µM in each case. Also, the TGI in [6], in experiment [7] and in [8] was greater than 100 µM in each case.
Take `CCOc1ccc(N/C(=C(/C(Cl)=C(/Cl)N(CC)CC)[N+](=O)[O-])n2nnc3ccccc32)cc1`: the TGI in experiment [1] is greater than 100 µM; in [2], greater than 100 µM; in [3], 47.4 µM; in [4] it was 68.8 µM; in [10], 49.6 µM; in [6], 27.3 µM. The results for the TGI in experiment [7] and in [8] were greater than 100 µM and 45.2 µM, respectively.
For the compound `COc1cc2ccc(=O)oc2cc1O`, the TGI in experiment [1] was 320 µM; in experiment [9] it was 618 µM; in [2], 79.7 µM; in [3], 201 µM; in [4], 577 µM; in experiment [10], 282 µM. Also, the TGI in experiment [6] was greater than 625 µM; in experiment [7], 270 µM; in [8], 183 µM.
Take `NC(=O)c1cccc([N+](=O)[O-])c1`: the TGI in experiment [1], in experiment [9], in experiment [2], in experiment [3], in experiment [4] and in experiment [10] was greater than 100 µM each time. For the same compound, the TGI in experiment [6], in experiment [7] and in [8] was greater than 100 µM in each case.
`COC(=O)C1CCC(=S)N1C(=O)c1ccccc1` (centres undefined): the TGI in [1], in experiment [9], in experiment [2], in experiment [4], in experiment [7] and in experiment [8] was greater than 100 µM in each case.
Turning to `CC(=O)OCC1OC(SC2=N/C(=C\c3ccc(Br)s3)C(=O)N2CN2CCOCC2)C(OC(C)=O)C(OC(C)=O)C1OC(C)=O` (centres undefined), the TGI in [9] came out at 23.6 µM; in experiment [2] it was 52 µM; in experiment [10], 32.2 µM; in experiment [5] it was 34.8 µM; in experiment [6], 38.9 µM; in experiment [7] it was 32.2 µM. Also, the TGI in [8] came to 29.4 µM.
Take `OCC(O)C(O)C(O)C(O)c1nc2ccc(Cl)cc2[nH]1` (centres undefined): the TGI in experiment [1], in experiment [9], in experiment [2], in experiment [3], in experiment [4] and in experiment [10] was greater than 100 µM each time. For the same compound, the TGI in [6], in experiment [7] and in experiment [8] was greater than 100 µM each time.
Regarding `O=C1C(Cl)=C(OCCCl)C(=O)c2c(O)ccc(O)c21`, the TGI in experiment [1] came out at 37.9 µM; in [2] it was 33.3 µM; in experiment [3], 31.8 µM; in experiment [10], 28 µM; in [5], 0.397 µM; in [6], 9.9 µM. Moreover, the TGI stood at 8.01 µM in experiment [7] and 11 µM in experiment [8].
Take `C[C@H](NC(=O)C(Cc1ccccc1)(Cc1ccc(O)cn1)NC(=O)c1ccccc1)c1ccccc1` (some centres undefined): the TGI in experiment [1] was determined as 31.6 µM; in experiment [9], 35.4 µM; in [2] it was 29 µM; in experiment [3] it was 34.2 µM; in experiment [4], 27.6 µM; in [10] it was 31.5 µM. Further, the TGI was 59.3 µM in experiment [6], 34.5 µM in experiment [7] and 29.1 µM in [8].
Take `CC(C)=NN/C(=N\S(=O)(=O)c1ccc(Oc2cccc(Cl)c2C#N)cc1)Nc1ccc(Cl)cc1`: the TGI in [1], in experiment [9], in experiment [2], in experiment [4], in experiment [10] and in experiment [6] was greater than 100 µM in each case. Besides, the TGI in experiment [7] and in experiment [8] was greater than 100 µM in each case.
`COc1ccc(CC(N)c2ccc(OC)cc2)cc1` (centres undefined): the TGI in experiment [1], in experiment [9], in [2], in experiment [10], in experiment [6] and in experiment [7] was greater than 100 µM throughout. This compound came in with a TGI in experiment [8] greater than 100 µM.
In the case of `Cc1csc(NC23CC4CC(CC(C4)C2)C3)[n+]1C(P(=O)([O-])O)P(=O)(O)O` (centres undefined), the TGI in experiment [1], in experiment [9], in experiment [2], in experiment [3], in experiment [5] and in experiment [6] was greater than 100 µM throughout. The TGI in experiment [7] and in [8] was greater than 100 µM in each case.
Take `CCCCOC(=O)C(NC(C(=O)OCCCC)c1cc(C(C)(C)C)c(O)c(C(C)(C)C)c1)c1cc(C(C)(C)C)c(O)c(C(C)(C)C)c1` (centres undefined): the TGI in [1], in experiment [9], in experiment [2], in experiment [3], in experiment [4] and in experiment [10] was greater than 100 µM each time. Besides, the TGI in experiment [6], in experiment [7] and in [8] was greater than 100 µM throughout.
`CCOC(=O)c1nc2ccc(C(F)(F)F)cc2nc1Oc1cc(OC)c(OC)c(OC)c1`: the TGI in [1], in experiment [2], in experiment [3], in [4], in experiment [10] and in experiment [6] was greater than 100 µM each time. Also, the TGI in experiment [7] and in experiment [8] was greater than 100 µM each time.
Regarding `CC(C)CNc1nc2ncnc(N)c2[nH]1`, the TGI in [1], in experiment [9], in experiment [2], in experiment [3], in experiment [4] and in experiment [10] was greater than 100 µM each time. The TGI in experiment [6], in experiment [7] and in [8] was greater than 100 µM in each case.
